Measurements published in paper PMC5955835 (ACS chemical neuroscience, 2018).
“Also recorded” adds a separate entry of the source. Where a name gives a salt, the structure may show the parent alone.

Experiments:
[1] = test system: VC4 and 5 neurons of C. elegans SC_APP model; assay: HCS microfluidic neurodegeneration assay in C. elegans SC_APP model; format: in vivo; details: for effect on neurodegeneration of VC4 and 5 neurons in SC_APP model: D3 adult animals, liquid culture, doses 0.02, 0.2, 2 and 20 μM, vs vehicle-treated SC_APP (200 μM FUdR, 0.5% DMSO); for concentration of highest efficacy in protecting against neurodegeneration: SC_APP model, D3 animals, four doses 0.02-20 μM
[2] = test system: transgenic APP mouse model; details: listed as SAS-0132; cited from earlier work
[3] = test system: VC4 and 5 neurons of SC_APP vem-1/PGRMC1 null C. elegans; details: earlier work, SC_APP model; cited from earlier work

SMILES	effect on neurodegeneration of VC4 and 5 neurons in SC_APP model [1]	concentration of highest efficacy in protecting against neurodegeneration [1]	cognitive performance in transgenic AD mice [2]	PGRMC1 dependence of reduction of neurodegeneration [3]
COc1ccc(S(=O)(=O)Nc2cc(Cl)cc(Cl)c2OC)cc1N1CCNCC1 [SB399885, SB 399885 hydrochloride]	protected the cholinergic neurons of the SC_APP model	20 µM		
Fc1ccc(-n2cc(CCCCN3CCC4(CC3)OCc3ccccc34)c3ccccc32)cc1 [Siramesine]	increase neurodegeneration after a dosing threshold is exceeded despite an initial decrease at lower dosages			
C=C(c1ccc(C(=O)O)cc1)c1cc2c(cc1C)C(C)(C)CCC2(C)C [bexarotene]	protected the cholinergic neurons of the SC_APP model	20 µM		
OC(CNc1ccccc1)Cn1c2ccc(Br)cc2c2cc(Br)ccc21 (stereo not drawn) [Compound P7C3, P7C3]		0.2 µM		
CN1CCN(c2ccc3c(c2)[C@H]2C[C@@H]3CCN2C(=O)OCc2ccccc2)CC1 [Compound 1]	reduce neurodegeneration relative to the vehicle treated SC_APP group		improvement in cognitive performance; also recorded: efficacious	reduced neurodegeneration through a pathway dependent upon PGRMC1
